Test results: patent US20260274800A1, “Heterocyclic Compound And Use Thereof In Medicine” (Kangbaida (Sichuan) Biotechnology Co., Ltd., priority 2023, published 2026)

Biological target: T1, MRGPRX4 (Homo sapiens, UniProt Q96LA9)
T1 construct: expressed in transfected cells
Experiment: Detection of MRGPRX4 activity (IP1 HTRF, deoxycholic acid stimulation)
Format: cell-based
Conditions: HEK-293 cells stably expressing MRGPRX4; compound 45 min, then deoxycholic acid 45 min; IP1 content by HTRF
Description: HEK-293 cells stably expressing MRGPRX4 were cultured in a DMEM medium containing 10% of FBS and 1% of a double antibody under the culture conditions of 37° C. and 5% CO2. Cells in the exponential growth phase were collected and inoculated into a 384-well plate at an inoculation density of 2×10^4 cells/well, with 10 μL per well. 2 μL/well of a gradient-diluted compound was added and co-incubated with the cells for 45 min. After the incubation was complete, 2 μL/well of deoxycholic acid (MCE, Cat: #HY-N0593) was added to continue the incubation for 45 min. After the incubation was complete, IP-one Gq kit (PE, Cat: #62IPAPEB) was used to detect the content of IP1 according to the instructions. HTRF values were substituted into GraphPad 8.0, and IC50 was calculated by fitting.

T1 sequence (Q96LA9 whole entry): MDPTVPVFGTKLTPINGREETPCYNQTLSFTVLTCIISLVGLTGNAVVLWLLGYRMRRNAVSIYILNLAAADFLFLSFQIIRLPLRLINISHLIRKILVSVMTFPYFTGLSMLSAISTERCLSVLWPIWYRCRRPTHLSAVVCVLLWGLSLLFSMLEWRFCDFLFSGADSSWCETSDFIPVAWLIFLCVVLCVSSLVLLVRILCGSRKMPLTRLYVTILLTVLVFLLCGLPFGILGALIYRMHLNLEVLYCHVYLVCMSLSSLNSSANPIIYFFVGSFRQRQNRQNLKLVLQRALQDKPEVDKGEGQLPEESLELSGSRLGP

SMILES	IC50
O=C(O)c1cccc(Cn2ncc3cc(C(F)(F)F)cc(Br)c32)c1F [Compound 22, 3-((7-Bromo-5-(trifluoromethyl)-1H-indazol-1-yl)methyl)-2-fluorobenzoic acid]	200 to 500 nM
O=C(O)c1cc(Cn2ncc3cc(C(F)(F)F)cc(Br)c32)ccc1F [Compound 41, 5-((7-Bromo-5-(trifluoromethyl)-1H-indazol-1-yl)methyl)-2-fluorobenzoic acid]	500 to 1000 nM
O=C(O)c1cccc(Cn2ncc3c(F)c(Cl)ccc32)c1F [Compound 48, 3-((5-Chloro-4-fluoro-1H-indazol-1-yl)methyl)-2-fluorobenzoic acid]	200 to 500 nM
O=C(O)c1cccc(Cn2ncc3cc(Cl)c(F)c(Cl)c32)c1F [Compound 51, 3-((5,7-Dichloro-6-fluoro-1H-indazol-1-yl)methyl)-2-fluorobenzoic acid]	≤ 200 nM
Cc1ccc2c(ccn2Cc2cccc(C(=O)O)c2F)c1Cl [Compound 62, 3-((4-Chloro-5-methyl-1H-indol-1-yl)methyl)-2-fluorobenzoic acid]	≤ 200 nM
O=C(O)c1cccc(Cn2ccc3c(F)c(Cl)ccc32)c1F [Compound 66, 3-((5-Chloro-4-fluoro-1H-indol-1-yl)methyl)-2-fluorobenzoic acid]	≤ 200 nM
N#Cc1ccc2c(ccn2Cc2cccc(C(=O)O)c2F)c1Cl [Compound 74, 3-((4-Chloro-5-cyano-1H-indol-1-yl)methyl)-2-fluorobenzoic acid]	≤ 200 nM
O=C(O)c1cccc(Cn2ccc3c(Cl)cc(Cl)cc32)c1F [Compound 79, 3-((4,6-Dichloro-1H-indol-1-yl)methyl)-2-fluorobenzoic acid]	≤ 200 nM
O=C(O)c1cccc(Cn2ccc3c(Cl)ccc(Cl)c32)c1F [Compound 80, 3-((4,7-Dichloro-1H-indol-1-yl)methyl)-2-fluorobenzoic acid]	500 to 1000 nM
O=C(O)c1cccc(Cn2ccc3c(Cl)c(Cl)ccc32)c1F [Compound 81, 3-((4,5-Dichloro-1H-indol-1-yl)methyl)-2-fluorobenzoic acid]	≤ 200 nM
O=C(O)c1cccc(Cn2ccc3cc(Cl)cc(Cl)c32)c1Cl [Compound 82, 2-Chloro-3-((5,7-dichloro-1H-indol-1-yl)methyl)benzoic acid]	200 to 500 nM
Cc1cc(OC(F)(F)F)cc2ccn(Cc3cccc(C(=O)O)c3F)c12 [Compound 87, 2-Fluoro-3-((7-methyl-5-(trifluoromethoxy)-1H-indol-1-yl)methyl)benzoic acid]	≤ 200 nM

Results, then the compound that gave them:

IC50	SMILES
≤ 200 nM	O=C(O)c1cccc(Cn2ccc3cc(Cl)cc(Cl)c32)c1F [Compound 5, 3-((5,7-Dichloro-1H-indol-1-yl)methyl)-2-fluorobenzoic acid]
≤ 200 nM	O=C(O)c1cccc(Cn2ccc3cc(Cl)c(Cl)cc32)c1F [Compound 6, 3-((5,6-Dichloro-1H-indol-1-yl)methyl)-2-fluorobenzoic acid]
≤ 200 nM	O=C(O)c1cccc(Cn2ccc3cc(C(F)(F)F)cc(Br)c32)c1F [Compound 15, 3-((7-Bromo-5-(trifluoromethyl)-1H-indol-1-yl)methyl)-2-fluorobenzoic acid]
≤ 200 nM	Cc1cc(C(F)(F)F)cc2ccn(Cc3cccc(C(=O)O)c3F)c12 [Compound 16, 3-((7-Methyl-5-(trifluoromethyl)-1H-indol-1-yl)methyl)-2-fluorobenzoic acid]
≤ 200 nM	O=C(O)c1cccc(Cn2ncc3cc(OC(F)(F)F)cc(Br)c32)c1F [Compound 27, 3-((7-Bromo-5-(trifluoromethoxy)-1H-indazol-1-yl)methyl)-2-fluorobenzoic acid]
≤ 200 nM	O=C(O)c1cccc(Cn2ncc3cc(Cl)c(Cl)c(Cl)c32)c1F [Compound 28, 2-Fluoro-3-((5,6,7-trichloro-1H-indazol-1-yl)methyl)benzoic acid]
≤ 200 nM	O=C(O)c1cccc(Cn2ncc3cc(Cl)cc(Cl)c32)c1F [Compound 30, 3-((5,7-Dichloro-1H-indazol-1-yl)methyl)-2-fluorobenzoic acid]
≤ 200 nM	O=C(O)c1cccc(Cn2ncc3cc(Cl)cc(Br)c32)c1F [Compound 36, 3-((7-Bromo-5-chloro-1H-indazol-1-yl)methyl)-2-fluorobenzoic acid]
≤ 200 nM	CC(c1cccc(C(=O)O)c1F)n1ncc2cc(Cl)c(Cl)c(Cl)c21 (stereo not drawn) [Compound 39, 2-Fluoro-3-(1-(5,6,7-trichloro-1H-indazol-1-yl)ethyl)benzoic acid]

Tested on: not listed separately
Experiment: Study of pharmacokinetics in mice in vivo
Design: species or system C57BL/6 mice
Conditions: male, C57BL/6, mouse, po (intragastric), 50 mg/kg, plasma
Description: An appropriate amount of the test substance was weighed, and the test substance was prepared into a 2 mg/mL transparent clear solution using 5% DMSO+5% HS-15 (Solutol HS-15)+90% D5W (5% glucose) for intravenous administration. The test substance was prepared into a 5 mg/mL uniform suspension using 5% DMSO+5% HS-15+90% PBS for intragastric administration.
18 healthy male C57BL/6 mice (GemPharmatech Co., Ltd., SPF grade) were taken. The intravenous administration group and the intragastric administration group respectively had 9 animals. At each time point, blood samples were taken from 3 animals via an orbital microsampling method, with a sampling volume of approximately 0.04 mL per animal per time point.
For intravenous administration of the test substance (10 mg/kg), blood samples were taken before administration and at 5 min, 15 min, 0.5 h, 1 h, 2 h, 4 h, 8 h, and 24 h after administration, and for intragastric administration of the test substance (50 mg/kg), blood samples were taken before administration and at 15 min, 0.5 h, 1 h, 2 h, 4 h, 8 h, and 24 h after administration. After anticoagulation with EDTA-K2, the blood samples were centrifuged at 6000 g at 4° C. for 5 min to separate plasma, and all plasma samples were stored at −70° C. for testing. The drug concentration of the test substance in plasma was determined by LC-MS/MS method (with tolbutamide as an internal standard), and the main pharmacokinetic parameters were calculated by Winnolin 8.3 non-compartment model.

AUC	Cmax	half-life	SMILES
725 µg·h/mL	121 µg/mL	3.49 h	O=C(O)c1cccc(Cn2ccc3cc(Cl)cc(Cl)c32)c1F [Compound 5, 3-((5,7-Dichloro-1H-indol-1-yl)methyl)-2-fluorobenzoic acid]
612 µg·h/mL	93 µg/mL	3.39 h	Cc1cc(C(F)(F)F)cc2ccn(Cc3cccc(C(=O)O)c3F)c12 [Compound 16, 3-((7-Methyl-5-(trifluoromethyl)-1H-indol-1-yl)methyl)-2-fluorobenzoic acid]
1580 µg·h/mL	132 µg/mL	9.81 h	O=C(O)c1cccc(Cn2ncc3cc(Cl)c(Cl)c(Cl)c32)c1F [Compound 28, 2-Fluoro-3-((5,6,7-trichloro-1H-indazol-1-yl)methyl)benzoic acid]
